From patent US10906881B2, “Inhibitors of arginine gingipain” (priority 2015, dated 2021)
“Also recorded” adds a separate entry of the source.

Key:
[1] = biological target: T1, RgpB (Porphyromonas gingivalis, UniProt P95493); test: RgpB fluorogenic inhibition assay; format: biochemical
T1 construct: 0.02 nM RgpB, isolated from culture of Porphyromonas gingivalis; made in house; host or cells: Porphyromonas gingivalis culture (native enzyme purified from the bacterium, not recombinant)
Method: The capacities of compounds of the present invention to inhibit the activity of RgpB were measured in a fluorogenic assay similar to those described in Barret Biochemical Journal. 1980, 187(3), 909. The specific assay conditions were as follows. Buffer: pH=7.5, 100 mM Tris-HCl, 75 mM NaCl, 2.5 mM CaCl2, 10 mM cysteine, 1% DMSO after all additions. Protein: 0.02 nM RgpB, isolated from culture of Porphyromonas gingivalis, as described in Pike et al. J Biol. Chem. 1994, 269(1), 406, and Potempa and Nguyen. Current Protocols in Protein Scienc. 2007, 21.20.1-21.20.27. Fluorogenic substrate: 10 uM Boc-Phe-Ser-Arg-MCA. Time=90 minutes. Temperature=37° C. Each compound: 10 concentrations, starting at either 100 uM or 100 nM, with lower concentrations generated by serial 3-fold dilutions. By testing a range of concentrations for each compound, the concentration required to inhibit the activity of RgpB by 50% (the “IC50”) was determined. Under the described assay conditions, signal-to-noise was excellent, and Z factor was greater than 0.7.
(§1) The inhibitory of activity of compounds described herein was tested against Kgp, RgpB, RgpA, and trypsin.

[2] = biological target: T2, trypsin (Bos taurus, UniProt P00760); test: Trypsin inhibition assay; format: biochemical
T2 construct: gene PRSS1
T2 sequence (P00760 24-246): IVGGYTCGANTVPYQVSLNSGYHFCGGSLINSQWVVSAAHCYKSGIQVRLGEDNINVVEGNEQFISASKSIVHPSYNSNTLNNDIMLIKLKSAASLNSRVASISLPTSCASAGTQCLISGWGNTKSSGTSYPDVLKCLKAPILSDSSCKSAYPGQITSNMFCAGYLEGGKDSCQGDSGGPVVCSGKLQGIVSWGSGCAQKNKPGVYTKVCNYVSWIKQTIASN
Method: as §1

[3] = biological target: RgpA (Porphyromonas gingivalis, UniProt B2RM93); test: RgpA inhibition assay; format: biochemical
Method: as §1

[4] = biological target: Kgp (Porphyromonas gingivalis, UniProt B2RLK2); test: Kgp inhibition assay; format: biochemical
Method: as §1

[5] = Plasma pharmacokinetics after subcutaneous delivery; format: in vivo; conditions: 10 mg/kg; for AUC(0-t): male, CD1, mouse, plasma, sc, mice
Method: Compound 13 was dissolved at a concentration of 1 mg/mL in water containing carboxymethylcellulose (2% w/w) or Pluronic F127 (25% w/w). Solutions were kept on ice, and 10 mg/kg of each solution was administered to 3 male CD1 mice. Plasma was collected at 7 time points. Concentrations in plasma were determined by HPLC with tandem mass (MS/MS) detection.
Plasma samples were precipitated with a mixture containing 80% acetonitrile. Samples were further diluted with water containing 0.1% formic acid. Chromatographic separation was performed on a reversed phase column (2.1×50 mm, particle size: […], Xbridge C8, Waters, USA). Components were separated using a linear gradient of acetonitrile containing 0.1% formic acid in ultrapurified H2O containing 0.1% formic acid (flow rate 0.2 mL/min).
MS analyses were performed using an API 5500 QTRAP system having an API 5500 QTRAP detector and a Turbo Ion Spray interface (both from Applied Biosystems, USA). The acquisitions were performed in positive ionization mode, with optimized settings for the analytes. The instrument was operated in multiple-reaction-monitoring (MRM) mode, the following transition was used to quantify compound 13; 433.4->112.1. Data were calibrated and quantified using the Analyst™ data system (Applied Biosystems) using the response of the analyte versus the concentration.

[6] = tested on: SH-SY5Y neuroblastoma cells; test: Rescue of neuroblastoma cells from P. gingivalis toxicity; format: cell-based; conditions: 4 μg/mL, P. gingivalis ATCC BAA-308, MOI 1:1000, 48 hours
Method: SH-SY5Y neuroblastoma cells were cultured based on established methods [Saberi S., et al. Cell Mol Neurobiol 2013. 33: 5 747-751]. The strain P. gingivalis ATCC BAA-308 was streaked onto a brain heart infusion agar (BHA), and the plate was incubated for 72 h at 37° C. in an anaerobic workstation with an atmosphere of 80% N2, 10% CO2, and 10% H2. The plates were removed from the anaerobic work station for testing and processed under ambient atmosphere. The bacteria were harvested and suspended in complete medium-Pen/Strep (without Pen/Strep). The turbidity of the suspension was adjusted to 0.5, as measured using a MicroScan® Turbidity Meter (Siemens), which is equivalent to ˜6×10^8 cfu/mL (for MOI 1:1000) and incubated with the cells for 48 hours. 4 μg/mL of Compound 13 was added to the media at the time of introduction of the bacteria. Results were recorded using a digital microscope camera (FIG. 5). […] Other compounds of the invention are tested as described for Compound 13.

[7] = tested on: P gingivalis W83; test: P. gingivalis infection of brain tissue in vivo (qPCR); design: species or system BalbC mice; conditions: BID subcutaneously in 25% Pluronic F127, day 35-70
Description: BalbC mice were given a tooth ligature and infected by oral lavage with P gingivalis W83 (1×10^9 CFU in 2% carboxymethyl cellulose) or vehicle for 6 weeks. Compound 13 was delivered BID subcutaneously in 25% Pluronic F127 on day 35-70. On day 70, mice were sacrificed and perfused with PBS prior to dissection. DNA was isolated from one quarter of the brain using a DNEasy Blood & Tissue Kit (Qiagen). Forward and reverse primers for RgpB were used for qPCR to quantify P. gingivalis DNA in the brain tissue. The forward primer sequence was 5′-[…]-3′ (SEQ ID NO: 1). The reverse primer sequence was 5′-[…]-3′ (SEQ ID NO: 2). The probe sequence was 5′-6-FAM-[…]-TAMRA-3′ (SEQ ID NO: 3).

[8] = tested on: gingipain-containing P. gingivalis supernatant; test: Degradation of human collagen by P. gingivalis supernatant (SDS-PAGE); format: biochemical, Porphyromonas gingivalis; conditions: 50 μM inhibitor, 1h, pH 7.5
Method: P. gingivalis was grown to exponential phase (OD 600 nm=0.6) in a Coy's anaerobic chamber under 5% hydrogen, 10% carbon dioxide, and […]. The bacteria were centrifuged at 5000×g for 10 min at 4° C., and then the supernatant was collected. The supernatant was concentrated by centrifugation at 5000×g for 60 min at 4° C. min using Corning Spin-X UF-20 concentrator tubes and then at 17,000×g for 30 min using Corning Spin-X UF500 concentrator tubes. 10 μg of Collagen type I was incubated with 0.6 μg of P. gingivalis culture supernatant for 1h in the absence or presence of 50 μM Rgp inhibitor (Compound 13, Table 1), 50 μM Kgp inhibitor ((S)—N-(6-guanidino-2-oxo-1-(2,3,5,6-tetrafluorophenoxy)hexan-3-yl)cyclopentanecarboxamide; described in U.S. Pat. Appl. Pub. No. 2016/0096830), or both. Reaction mixtures contained 5 mM cysteine, 20 mM sodium phosphate buffer, pH 7.5. After incubation, the reaction was terminated by the addition of protease inhibitor cocktail (Sigma). The samples were then analyzed by SDS-polyacrylamide gel electrophoresis. Following separation, the gels were stained with Biosafe Coomassie (Bio-Rad).

[9] = oral RTV 15 minutes prior to Kyt-36; from U.S. patent application Ser. No. 14/875,416; cited from earlier work

N=C(N)NCCCC(NC(=O)[C@H]1CC[C@@H](N)C1)C(=O)c1nc2ccccc2s1 (single isomer, unassigned) [Compound 9]
IC50 [1]: < 0.002 µM

N=C(N)NCCCC(NC(=O)[C@H]1CC[C@@H](N)C1)C(=O)c1nc2ccccc2s1 (single isomer, unassigned) [Compound 10]
IC50 [2]: > 1 µM

CC[C@H](NC(C)=O)C(=O)NC(CCCNC(=N)N)C(=O)c1nc2ccccc2s1 (single isomer, unassigned) [Compound 11]
IC50 [2]: > 0.04 µM

CC[C@H](NC(C)=O)C(=O)NC(CCCNC(=N)N)C(=O)c1nc2ccccc2s1 (single isomer, unassigned) [Compound 12]
IC50 [1]: < 0.002 µM

N=C(N)NCCC[C@H](NC(=O)C1CCCC1)C(=O)c1nc2ccccc2s1 [Compound 1, N-[(1S)-1-(1,3-benzothiazole-2-carbonyl)-4-guanidino-butyl]cyclopentanecarboxamide]
IC50 [1]: < 0.001 µM

CCCC(=O)N[C@@H](CCCNC(=N)N)C(=O)c1nc2ccccc2s1 [Compound 2, N-[(1S)-1-(1,3-benzothiazole-2-carbonyl)-4-guanidino-butyl]butanamide]
IC50 [1]: < 0.002 µM
IC50 [2]: > 1 µM

N=C(N)NCCC[C@H](NC(=O)c1ccccc1)C(=O)c1nc2ccccc2s1 [Compound 3, N-[(1S)-1-(1,3-benzothiazole-2-carbonyl)-4-guanidino-butyl]benzamide]
IC50 [1]: < 0.002 µM
IC50 [2]: > 1 µM

N=C(N)NCCC[C@H](NC(=O)c1ccccc1C(F)(F)F)C(=O)c1nc2ccccc2s1 [Compound 4, N-[(1S)-1-(1,3-benzothiazole-2-carbonyl)-4-guanidino-butyl]-2-(trifluoromethyl)benzamide]
IC50 [2]: > 0.35 µM

N=C(N)NCCC[C@H](NC(=O)CCCN)C(=O)c1nc2ccccc2s1 [Compound 5, 4-amino-N-[(1S)-1-(1,3-benzothiazole-2-carbonyl)-4-guanidino-butyl]butanamide]
IC50 [2]: > 1 µM

N=C(N)NCCC[C@H](NC(=O)[C@H]1CCCNC1)C(=O)c1nc2ccccc2s1 [Compound 6, (3S)—N-[(1S)-1-(1,3-benzothiazole-2-carbonyl)-4-guanidino-butyl]piperidine-3-carboxamide]
IC50 [2]: > 1 µM

N=C(N)NCCC[C@@H](NC(=O)[C@H]1CCCNC1)C(=O)c1nc2ccccc2s1 [Compound 7, (3S)—N-[(1R)-1-(1,3-benzothiazole-2-carbonyl)-4-guanidino-butyl]piperidine-3-carboxamide]
IC50 [2]: > 1 µM

N=C(N)NCCC[C@H](NC(=O)[C@H]1CCNC1)C(=O)c1nc2ccccc2s1 [Compound 8, (3S)—N-[1-(1,3-benzothiazole-2-carbonyl)-4-guanidino-butyl]pyrrolidine-3-carboxamide]
IC50 [2]: > 1 µM

N=C(N)NCCC[C@H](NC(=O)C1CCCC1)C(=O)COc1c(F)c(F)cc(F)c1F [Compound 13, N-[(1S)-4-guanidino-1-[2-(2,3,5,6-tetrafluorophenoxy)acetyl]butyl]cyclopentanecarboxamide]
IC50 [1]: < 0.001 µM
IC50 [3]: < 0.0005 µM
IC50 [4]: > 0.15 µM
Plasma concentration over time ([5]; Pluronic F127 versus carboxymethylcellulose): increased concentration
AUC(0-t) ([5]; in 2% carboxymethylcellulose): 0.687 µg·h/mL
AUC(0-t) ([5]; in 25% Pluronic F127): 2.12 µg·h/mL
Rescue of cells from P. gingivalis toxicity [6]: can rescue; also recorded: prevented the toxicity
P. gingivalis DNA in brain tissue by qPCR [7]: demonstrates efficacy
Degradation of collagen type I by P. gingivalis culture supernatant [8]: prevent degradation of collagen

[N-]=[N+]=Nc1cccc(C(=O)N[C@@H](CCCNC(=N)N)C(=O)COc2c(F)c(F)cc(F)c2F)c1 [Compound 14, 3-azido-N-[(1S)-4-guanidino-1-[2-(2,3,5,6-tetrafluorophenoxy)acetyl]butyl]benzamide]
IC50 [3]: < 0.0005 µM
IC50 [4]: > 0.45 µM

CN(NC(=O)CC[C@H](NC(=O)OCc1ccccc1)C(=O)N[C@@H](CCCCN)C(=O)C(=O)NCc1ccccc1)c1ccccc1 [Kyt-36]
Half-life [9]: increases the half-life
